In patent US5686102A, “Pharmacological composition for topical administration” (Lancaster Group AG, priority 1992, dated 1997):
Where two headings read alike, the source gives them in different places.

Tests used:
[1] = Penetration into skin and residence time/release of labelled encapsulated fluorocarbons, animal experiments; format: in vivo
Source text: By means of separate investigations, it was possible to determine the dependence of the penetration rates and the depth of penetration on the particle size of the aggregates experimentally in animal experiments using labelled encapsulated fluorocarbons. […] The choice of fluorocarbons or mixtures thereof according to their lipid solubility (represented by their critical solubility temperature CST in n-hexane) permits, as a further important criterion, the control of the residence time in the tissue. […] With the aid of fluorocarbon mixtures, in this way systems having desired CST values, i.e. lipid and membrane solubilities, with respect to the intended use can be prepared in a controlled manner.

[2] = Critical solubility temperature (CST) in n-hexane
Source text: FIG. 1 is a diagram of the critical solubility temperatures (CST) of perfluorocarbon mixtures in n-hexane using perfluorodecalin as a starting point
FIG. 2 is a diagram of the critical solubility temperatures of perfluorocarbon mixtures in n-hexane using F-octylbromide as a starting point.

[3] = O2 solubility of fluorocarbons; format: physicochemical
[4] = Vapour pressure of fluorocarbons at 37° C.; format: physicochemical
[5] = critical solubility temperature in n-hexane

CST [2] | Structure (SMILES) | CST [2, 5] | further results
22 °C | FC1(F)C(F)(F)C(F)(F)C2(F)C(F)(F)C(F)(F)C(F)(F)C(F)(F)C2(F)C1(F)F (centres unmarked) [Perfluorodecalin, perfluorodecalin] | – | release from the tissue ([1]; in vivo): released correspondingly more rapidly from the tissue
– | FC(F)(F)C(F)(F)C(F)(F)C(F)(F)C(F)(F)C(F)(F)OC(F)(F)C(F)(F)C(F)(F)C(F)(F)C(F)(F)C(F)(F)F [F-dihexyl ether] | 59 °C | –
– | FC(F)(F)C(F)(F)C(F)(F)C(F)(F)C=CC(F)(F)C(F)(F)C(F)(F)C(F)(F)F [Bis-F(butyl)ethene, bis-F(butyl)ethene] | 22.5 °C | –
-24.5 °C | FC(F)(F)C(F)(F)C(F)(F)C(F)(F)C(F)(F)C(F)(F)C(F)(F)C(F)(F)Br [Perfluorooctyl bromide, perfluorooctyl bromide] | – | –
43 °C | FC(F)(F)C(F)(F)C(F)(F)N(C(F)(F)C(F)(F)C(F)(F)F)C(F)(F)C(F)(F)C(F)(F)F [F-tripropylamine] | – | –
– | FC(F)(F)C(F)(F)C(F)(F)C(F)(F)C1(F)OC(F)(F)C(F)(F)C1(F)F (centres unmarked) [Perfluorobutyltetrahydrofuran, perfluorobutyltetrahydrofuran] | 29 °C | O2 solubility [3]: 52 ml of O2 /100 ml of Fc; release from the tissue ([1]; in words, compared with perfluorotributylamine): released correspondingly more rapidly from the tissue; Vapour Pressure [4]: 51 mm Hg
– | FC1(F)OC(F)(F)C(F)(F)N(C(F)(F)C2(F)C(F)(F)C(F)(F)C(F)(F)C(F)(F)C2(F)F)C1(F)F [F-cyclohexylmethylmorpholine] | 38.5 °C | O2 solubility [3]: 42 ml of O2 /100 ml of Fc; Vapour Pressure [4]: 4 mm Hg
– | FC(F)(F)C(F)(F)C(F)(F)C(F)(F)C(F)(F)C(F)(F)F [F-hexane, perfluorohexane] | – | release from the tissue ([1]; in vivo): released correspondingly more rapidly from the tissue
– | FC(F)(F)C1(F)C(F)(F)C(F)(F)C(F)(F)C(F)(F)C1(F)F [F-methylcyclohexane, perfluoromethylcyclohexane] | 8.2 °C | –
– | FC(F)(F)C(F)(F)C(F)(F)C(F)(F)N(C(F)(F)C(F)(F)C(F)(F)C(F)(F)F)C(F)(F)C(F)(F)C(F)(F)C(F)(F)F [F-tributylamine, perfluorotributylamine] | 59 °C | residence time in the tissue ([1]; in words, related to CST / lipid solubility): relatively large residence time
